Test results: patent US20120156185A1, “NUTRITIONAL COMPOSITIONS COMPRISING CITRUS FIBERS” (HERBAMED LTD., priority 2009, published 2012)
Several values for one entry are separate records, joined by “and”; a condition that tells them apart may be missing. Equal entries are not always repeated.

Assay: Oxygen radical absorbance capacity (ORAC) assay
Protocol: ORAC assay for fresh orange crush and dry flake extracts was carried out following the modified procedure of the method previously described by Prior et al (Prior R L. et al. 2003. J Agric Food Chem 5, 3273-3279). This assay measures the ability of antioxidant components in test materials to inhibit the decline in disodium fluorescein (FL) fluorescence that is induced by the peroxyl radical generator 2′,2′-Azobis (2-amidinopropane) dihydrochloride (AAPH). The reaction was obtained on fluorescent plate reader (Synergy HT, Bio-Tek Instruments, Winooski, Vt., USA). The mixture contained in the final assay mixture 200 μL of total volume, FL, 120 μL, […] and AAPH, 60 μL 32 mM final concentration. All reagents were prepared with 75 mM phosphate buffer, pH 7.4. FL, phosphate buffer and samples were pre-incubated at 37° C. for 15 min. The reaction was started by the addition of AAPH. Fluorescence was measured and recorded every 1.5 min at excitation length of 485 nm and emission length of 535 nm, until the fluorescence of the last reading declined to a value of less than or equal to 5% of the first reading. Phosphate buffer was used as a blank and 2.5-40 μM trolox were used as positive control standards. The final ORAC values were calculated by using a regression equation between the trolox concentration and the net area under the FL decay curve and were expressed as trolox equivalents (TE) as μmole per 100 g of fresh weight (FW) or dry weight (DW).
In both compounds the measured inhibition time was directly proportional to the concentration of the antioxidant. In the tasted concentration range 2.5, 5.0, 10.0 μM of trolox the Tinh were 14.6, 20.9, and 25.5 respectively. For comparison Tinh for 2.5, 5.0, 10.0 μM of hesperidin were 26.8, 45.0 and 62.5 min respectively. […] In ORAC assay Tinh measures the ability of antioxidant components in test materials to inhibit the decline in disodium fluorescein (FL) fluorescence that is induced by the peroxyl radical generator 2′,2′-Azobis (2-amidinopropane) dihydrochloride (AAPH). Tinh for 10 μM of hesperidin and 10 μM of trolox were 62.5 and 23.5 min respectively. […] Higher correlation was observed between Hesperidin concentration and its antioxidant capacity.

Compound | Tinh (inhibition time, antioxidant capacity) (2.5 μM) [min] | Tinh (inhibition time, antioxidant capacity) (5.0 μM) [min] | Tinh (inhibition time, antioxidant capacity) (10 μM)
COc1ccc([C@@H]2CC(=O)c3c(O)cc(O[C@@H]4O[C@H](CO[C@@H]5O[C@@H](C)[C@H](O)[C@@H](O)[C@H]5O)[C@@H](O)[C@H](O)[C@H]4O)cc3O2)cc1O [hesperidin] | 26.8 | 45.0 | 62.5 min
Cc1c(C)c2c(c(C)c1O)CCC(C)(C(=O)O)O2 (stereo not drawn) [trolox, 6-hydroxy-2,5,7,8,-tetramethylchroman-2-carboxylic acid] | 14.6 | 20.9 | 25.5 min and 23.5 min
